The results in this text go back to US12252524B2, “GIP/GLP1 co-agonist compounds” (Eli Lilly and Company, priority 2018, dated 2025).

Numbered stars: 1 amine (or outer) side, 2 acyl side, 3 side chain; on linkers, the order of the positions; unused ones are H or OH. Square brackets hold non-standard residues; d marks the D form. Side chains are listed from the residue outwards. Peptide text beside a SMILES is read from it. * marks the point of attachment. C20 diacid = O=C(O)CCCCCCCCCCCCCCCCCCC(=O)*; C18 diacid = O=C(O)CCCCCCCCCCCCCCCCC(=O)*; αMePhe(2-F) = C[C@](N)(Cc1ccccc1F)C(=O)O; γGlu = O=C(O)[C@H](CCC(=O)[*:2])N[*:1]; Desaminohistidyl = O=C(CCc1c[nH]cn1)*; αMeF = C[C@](N)(Cc1ccccc1)C(=O)O; 4Pal = N[C@@H](Cc1ccncc1)C(=O)O; αMeL = CC(C)C[C@](C)(N)C(=O)O; Orn = NCCC[C@H](N)C(=O)O; Dab = NCC[C@H](N)C(=O)O; AEEA = NCCOCCOCC(=O)O; Aib = CC(C)(N)C(=O)O

One assay has as its target T1, human Gcg receptor (Homo sapiens, UniProt P47871).
T1 construct: expressed in transfected cells; crude membranes
The assay can be described thus: [125I]-Glucagon binding (SPA), human Gcg receptor. The conditions noted are these: read-out: hGLcgR Ki, nM (SEM, n). A digest of the protocol:
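Scintillation counts are taken after membranes and WGA beads incubate and settle for 12 hours at room temperature. Buffer is 25 mM HEPES, pH 7.4, with CaCl2, MgCl2, bacitracin and Tween-20. Ki values, from four-parameter IC50 fits, are geometric means over independent days.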

A further assay has as its target T2, human GIP receptor (Homo sapiens, UniProt P48546).
T2 construct: expressed in transfected cells; crude membranes
T2 sequence (P48546 22-466): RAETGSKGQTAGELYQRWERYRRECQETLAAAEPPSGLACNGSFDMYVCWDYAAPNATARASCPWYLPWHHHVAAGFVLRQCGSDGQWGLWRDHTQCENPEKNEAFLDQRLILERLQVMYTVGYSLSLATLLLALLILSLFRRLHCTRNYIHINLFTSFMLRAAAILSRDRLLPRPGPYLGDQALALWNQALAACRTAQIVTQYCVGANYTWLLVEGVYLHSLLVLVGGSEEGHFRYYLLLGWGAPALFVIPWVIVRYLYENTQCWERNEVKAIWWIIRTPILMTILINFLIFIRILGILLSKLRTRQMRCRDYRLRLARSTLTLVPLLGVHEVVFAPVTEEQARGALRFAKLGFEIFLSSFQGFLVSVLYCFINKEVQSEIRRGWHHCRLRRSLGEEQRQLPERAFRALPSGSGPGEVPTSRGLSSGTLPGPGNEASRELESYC
The assay can be described thus: [125I]-GIP binding (SPA), human GIP receptor. Particulars: read-out: hGIPR Ki, nM (SEM, n).

Assay [1] addresses human GLP-1 receptor (GLP-1R) (Homo sapiens, UniProt P43220). The assay is described as follows: cAMP pharmacological functional assay in presence of casein, hGLP-1R. The assay is classed as cell-based. Particulars: HEK293 cells expressing hGLP-1R, 0.1% Casein, geometric mean; read-out: hGLP1R cAMP Rel EC50 nM (SEM, n).
The target of assay [2] is T3, gastric inhibitory peptide receptor (GIPR) (Homo sapiens, UniProt P48546).
T3 sequence (P48546 22-466): T2 sequence (P48546 22-466)
The assay can be described thus: cAMP pharmacological functional assay in presence of casein, hGIPR. The conditions noted are these: HEK293 cells expressing hGIPR, 0.1% Casein, geometric mean; read-out: hGIPR cAMP Rel EC50 nM (SEM, n). The assay is classed as cell-based.

The next assay deals with human GLP-1R (Homo sapiens, UniProt P43220). The assay can be described thus: [125I]-GLP-1 binding (SPA), human GLP-1 receptor. Further details: expressed in transfected cells; crude membranes. The conditions noted are these: read-out: hGLP1R Ki, (nM) (SEM, n). In short, it runs like this: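 Membranes: hypotonic lysis (50 mM Tris HCl, pH 7.5, protease inhibitors), Potter-Elvehjem homogenization, high-speed pellet (35000×g 1 h or 25000×g 30 min, 4° C.). Buffer: 25 mM HEPES pH 7.4, 2.5 mM CaCl2, 1 mM MgCl2. Four-parameter IC50 fit; Ki as geometric mean ± SEM.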
Chain of human GLP-1R (P43220 24-463): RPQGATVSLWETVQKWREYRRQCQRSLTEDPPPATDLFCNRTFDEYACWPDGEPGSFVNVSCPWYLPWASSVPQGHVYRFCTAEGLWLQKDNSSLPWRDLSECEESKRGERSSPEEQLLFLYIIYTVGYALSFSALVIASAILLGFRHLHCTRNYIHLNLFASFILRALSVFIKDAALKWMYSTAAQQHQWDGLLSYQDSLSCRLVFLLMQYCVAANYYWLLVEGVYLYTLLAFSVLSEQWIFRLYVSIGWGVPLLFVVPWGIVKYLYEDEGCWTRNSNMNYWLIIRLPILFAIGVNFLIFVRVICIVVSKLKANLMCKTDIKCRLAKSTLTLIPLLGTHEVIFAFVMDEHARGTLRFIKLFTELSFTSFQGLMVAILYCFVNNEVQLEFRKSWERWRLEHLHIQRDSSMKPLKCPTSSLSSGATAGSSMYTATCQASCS

Chain of human GLP-1 receptor (GLP-1R) (P43220 24-463): as above
T1 sequence (P47871 26-477): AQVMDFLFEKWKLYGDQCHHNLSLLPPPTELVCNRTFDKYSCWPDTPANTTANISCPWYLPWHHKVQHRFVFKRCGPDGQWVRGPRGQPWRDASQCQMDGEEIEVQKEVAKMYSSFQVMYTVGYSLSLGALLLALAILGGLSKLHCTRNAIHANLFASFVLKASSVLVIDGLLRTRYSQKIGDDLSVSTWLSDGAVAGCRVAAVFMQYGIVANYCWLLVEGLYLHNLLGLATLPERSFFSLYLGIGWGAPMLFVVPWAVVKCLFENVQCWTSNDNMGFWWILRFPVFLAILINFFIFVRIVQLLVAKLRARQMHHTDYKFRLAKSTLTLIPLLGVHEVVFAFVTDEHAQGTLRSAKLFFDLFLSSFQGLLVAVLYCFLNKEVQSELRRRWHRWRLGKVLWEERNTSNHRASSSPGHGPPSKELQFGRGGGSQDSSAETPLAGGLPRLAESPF

With `CC[C@H](C)[C@H](NC(=O)[C@H](CC(C)C)NC(=O)[C@H](Cc1ccc(O)cc1)NC(=O)[C@@H](CCC(=O)O)NC(=O)[C@@H](NC(=O)[C@H](Cc1ccccc1)NC(=O)[C@H](CCC(=O)O)NC(=O)C(C)(C)NC(=O)[C@H](CCC(N)=O)NC(=O)[C@H](C)NC(=O)[C@H](CCCCNC(=O)COCCOCCNC(=O)COCCOCCNC(=O)CC[C@H](NC(=O)CCCCCCCCCCCCCCCCC(=O)O)C(=O)O)NC(=O)[C@H](CCN)NC(=O)[C@H](CC(=O)O)NC(=O)[C@H](CC(C)C)NC(=O)[C@H](CC(C)C)NC(=O)[C@@H](NC(=O)[C@H](CO)NC(=O)[C@H](Cc1ccncc1)NC(=O)[C@H](CC(=O)O)NC(=O)[C@H](CO)NC(=O)[C@@H](NC(=O)[C@](C)(Cc1ccccc1F)NC(=O)[C@@H](NC(=O)CNC(=O)[C@H](CCC(=O)O)NC(=O)C(C)(C)NC(=O)[C@@H](N)Cc1ccc(O)cc1)[C@@H](C)O)[C@@H](C)O)[C@@H](C)CC)[C@@H](C)CC)C(=O)N[C@@H](CCC(=O)O)C(=O)NCC(=O)NCC(=O)N1CCC[C@H]1C(=O)N[C@@H](CO)C(=O)N[C@@H](CO)C(=O)NCC(=O)N[C@@H](C)C(=O)N1CCC[C@H]1C(=O)N1CCC[C@H]1C(=O)N1CCC[C@H]1C(=O)N[C@@H](CO)C(N)=O` [Example 234] (H-Y[Aib]EGT[αMePhe(2-F)]TSD[4Pal]SILLD[Dab]K([AEEA-AEEA-γGlu-C18 diacid])AQ[Aib]EFI[dE]YLIEGGPSSGAPPPS-NH2), the Ki (commonly the equilibrium dissociation constant of an inhibitor or competing ligand from its target) was more than 1100 nM at human Gcg receptor, 0.0563 nM at human GIP receptor and 10.9 nM at human GLP-1R. Moreover, the EC50 (in general, the midpoint of the concentration-response curve) was found to be 0.0926 nM in assay [1] and 0.0372 nM in assay [2].
In the same order, the values of `CC[C@H](C)[C@H](NC(=O)[C@H](CC(C)C)NC(=O)[C@H](Cc1ccc(O)cc1)NC(=O)[C@H](CCC(=O)O)NC(=O)[C@@H](NC(=O)[C@H](Cc1ccccc1)NC(=O)C(C)(C)NC(=O)C(C)(C)NC(=O)[C@H](CCC(N)=O)NC(=O)[C@H](C)NC(=O)[C@H](CCCCNC(=O)COCCOCCNC(=O)COCCOCCNC(=O)CC[C@H](NC(=O)CCCCCCCCCCCCCCCCCCC(=O)O)C(=O)O)NC(=O)[C@H](CCCCN)NC(=O)[C@H](CC(=O)O)NC(=O)[C@H](CC(C)C)NC(=O)[C@](C)(CC(C)C)NC(=O)[C@@H](NC(=O)[C@H](CO)NC(=O)[C@H](Cc1ccc(O)cc1)NC(=O)[C@H](CC(=O)O)NC(=O)[C@H](CO)NC(=O)[C@@H](NC(=O)[C@](C)(Cc1ccccc1)NC(=O)[C@@H](NC(=O)CNC(=O)[C@H](CCC(=O)O)NC(=O)C(C)(C)NC(=O)[C@@H](N)Cc1ccc(O)cc1)[C@@H](C)O)[C@@H](C)O)[C@@H](C)CC)[C@@H](C)CC)C(=O)N[C@@H](CCC(=O)O)C(=O)NCC(=O)NCC(=O)N1CCC[C@H]1C(=O)N[C@@H](CO)C(=O)N[C@@H](CO)C(=O)NCC(=O)N[C@@H](C)C(=O)N1CCC[C@H]1C(=O)N1CCC[C@H]1C(=O)N1CCC[C@H]1C(=O)N[C@@H](CO)C(N)=O` [Example 143] (H-Y[Aib]EGT[αMeF]TSDYSI[αMeL]LDKK([AEEA-AEEA-γGlu-C20 diacid])AQ[Aib][Aib]FIEYLIEGGPSSGAPPPS-NH2) are 65.5 nM, 0.0304 nM, 1.15 nM, 0.0745 nM and 0.0515 nM.
In the same order, the values of `CC[C@H](C)[C@H](NC(=O)[C@H](CC(C)C)NC(=O)[C@H](Cc1ccc(O)cc1)NC(=O)[C@H](CCC(=O)O)NC(=O)[C@@H](NC(=O)[C@H](Cc1ccccc1)NC(=O)[C@H](CC(=O)O)NC(=O)C(C)(C)NC(=O)[C@H](CCC(N)=O)NC(=O)[C@H](C)NC(=O)[C@H](CCCCNC(=O)COCCOCCNC(=O)COCCOCCNC(=O)CC[C@H](NC(=O)CCCCCCCCCCCCCCCCCCC(=O)O)C(=O)O)NC(=O)[C@H](CCCCN)NC(=O)[C@H](CC(=O)O)NC(=O)[C@H](CC(C)C)NC(=O)[C@](C)(CC(C)C)NC(=O)[C@@H](NC(=O)[C@H](CO)NC(=O)[C@H](Cc1ccc(O)cc1)NC(=O)[C@H](CC(=O)O)NC(=O)[C@H](CO)NC(=O)[C@@H](NC(=O)[C@](C)(Cc1ccccc1)NC(=O)[C@@H](NC(=O)CNC(=O)[C@H](CCC(=O)O)NC(=O)C(C)(C)NC(=O)[C@@H](N)Cc1ccc(O)cc1)[C@@H](C)O)[C@@H](C)O)[C@@H](C)CC)[C@@H](C)CC)C(=O)N[C@@H](CCC(=O)O)C(=O)NCC(=O)NCC(=O)N1CCC[C@H]1C(=O)N[C@@H](CO)C(=O)N[C@@H](CO)C(=O)NCC(=O)N[C@@H](C)C(=O)N1CCC[C@H]1C(=O)N1CCC[C@H]1C(=O)N1CCC[C@H]1C(=O)N[C@@H](CO)C(N)=O` [Example 140] (H-Y[Aib]EGT[αMeF]TSDYSI[αMeL]LDKK([AEEA-AEEA-γGlu-C20 diacid])AQ[Aib]DFIEYLIEGGPSSGAPPPS-NH2) are 175 nM, 0.0474 nM, 1.46 nM, 0.0424 nM and 0.0349 nM.
The corresponding values for `CC[C@H](C)[C@H](NC(=O)[C@H](CC(C)C)NC(=O)[C@H](Cc1ccc(O)cc1)NC(=O)[C@@H](CCC(=O)O)NC(=O)[C@@H](NC(=O)[C@H](Cc1ccccc1)NC(=O)[C@H](CCC(=O)O)NC(=O)C(C)(C)NC(=O)[C@H](CCC(N)=O)NC(=O)[C@H](C)NC(=O)[C@H](CCCCNC(=O)COCCOCCNC(=O)COCCOCCNC(=O)CC[C@H](NC(=O)CCCCCCCCCCCCCCCCC(=O)O)C(=O)O)NC(=O)[C@H](CCCN)NC(=O)[C@H](CC(=O)O)NC(=O)[C@H](CC(C)C)NC(=O)[C@H](CC(C)C)NC(=O)[C@@H](NC(=O)[C@H](CO)NC(=O)[C@H](Cc1ccc(O)cc1)NC(=O)[C@H](CC(=O)O)NC(=O)[C@H](CO)NC(=O)[C@@H](NC(=O)[C@](C)(Cc1ccccc1F)NC(=O)[C@@H](NC(=O)CNC(=O)[C@H](CCC(=O)O)NC(=O)C(C)(C)NC(=O)[C@@H](N)Cc1ccc(O)cc1)[C@@H](C)O)[C@@H](C)O)[C@@H](C)CC)[C@@H](C)CC)C(=O)N[C@@H](CCC(=O)O)C(=O)NCC(=O)NCC(=O)N1CCC[C@H]1C(=O)N[C@@H](CO)C(=O)N[C@@H](CO)C(=O)NCC(=O)N[C@@H](C)C(=O)N1CCC[C@H]1C(=O)N1CCC[C@H]1C(=O)N1CCC[C@H]1C(=O)N[C@@H](CO)C(N)=O` [Example 248] (H-Y[Aib]EGT[αMePhe(2-F)]TSDYSILLD[Orn]K([AEEA-AEEA-γGlu-C18 diacid])AQ[Aib]EFI[dE]YLIEGGPSSGAPPPS-NH2) are more than 1050 nM, 0.0397 nM, 2.4 nM, 0.0428 nM and 0.0328 nM.
For `CC[C@H](C)[C@H](NC(=O)[C@H](CC(C)C)NC(=O)[C@H](Cc1ccc(O)cc1)NC(=O)[C@H](CCC(=O)O)NC(=O)[C@@H](NC(=O)[C@H](Cc1ccccc1)NC(=O)[C@H](C)NC(=O)C(C)(C)NC(=O)[C@H](CCC(N)=O)NC(=O)[C@H](C)NC(=O)[C@H](CCCCNC(=O)COCCOCCNC(=O)COCCOCCNC(=O)CC[C@H](NC(=O)CCCCCCCCCCCCCCCCCCC(=O)O)C(=O)O)NC(=O)[C@H](CCCCN)NC(=O)[C@H](CC(=O)O)NC(=O)[C@H](CC(C)C)NC(=O)[C@H](CC(C)C)NC(=O)[C@@H](NC(=O)[C@H](CO)NC(=O)[C@H](Cc1ccc(O)cc1)NC(=O)[C@H](CC(=O)O)NC(=O)[C@H](CO)NC(=O)[C@@H](NC(=O)[C@H](Cc1ccccc1)NC(=O)[C@@H](NC(=O)CNC(=O)[C@H](CCC(=O)O)NC(=O)C(C)(C)NC(=O)CCc1c[nH]cn1)[C@@H](C)O)[C@@H](C)O)[C@@H](C)CC)[C@@H](C)CC)C(=O)N[C@@H](CCC(=O)O)C(=O)NCC(=O)NCC(=O)N1CCC[C@H]1C(=O)N[C@@H](CO)C(=O)N[C@@H](CO)C(=O)NCC(=O)N[C@@H](C)C(=O)N1CCC[C@H]1C(=O)N1CCC[C@H]1C(=O)N1CCC[C@H]1C(=O)N[C@@H](CO)C(N)=O` [Example 106] (Desaminohistidyl-[Aib]EGTFTSDYSILLDKK([AEEA-AEEA-γGlu-C20 diacid])AQ[Aib]AFIEYLIEGGPSSGAPPPS-NH2), the Ki on human Gcg receptor came out at 515 nM; at human GIP receptor, 0.179 nM; on human GLP-1R, 1.2 nM. In addition, the values for the EC50 in assay [1] and in assay [2] were 0.0413 nM and 6.54 nM, respectively.
